Results from PMC3170879 (Chemmedchem, 2011).

Target: T1, steroid sulfatase (STS) (Homo sapiens, UniProt P08842)
T1 sequence (P08842 22-583): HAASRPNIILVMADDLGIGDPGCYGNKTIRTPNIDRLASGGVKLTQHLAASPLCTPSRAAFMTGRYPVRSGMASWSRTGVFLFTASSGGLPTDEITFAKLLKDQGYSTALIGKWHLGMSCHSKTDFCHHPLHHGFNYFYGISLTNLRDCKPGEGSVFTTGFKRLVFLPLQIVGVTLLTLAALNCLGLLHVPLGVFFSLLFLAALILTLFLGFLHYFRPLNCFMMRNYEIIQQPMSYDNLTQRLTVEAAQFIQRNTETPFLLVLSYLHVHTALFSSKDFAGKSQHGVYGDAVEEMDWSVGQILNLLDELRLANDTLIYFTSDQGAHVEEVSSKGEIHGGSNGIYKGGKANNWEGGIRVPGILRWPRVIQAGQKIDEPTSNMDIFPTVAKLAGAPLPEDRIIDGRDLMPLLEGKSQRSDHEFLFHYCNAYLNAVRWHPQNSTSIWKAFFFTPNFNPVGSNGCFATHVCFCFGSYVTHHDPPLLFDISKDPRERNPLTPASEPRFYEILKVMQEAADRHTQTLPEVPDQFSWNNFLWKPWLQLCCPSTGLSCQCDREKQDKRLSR
Test: radiometric sulfatase assay, intact JEG-3 monolayer
Assay type: cell-based
Conditions: read-out: [drawing 5]; [6,7-3H]oestrone sulfate substrate, 1 h

IC50: > 10 µM
Compound: CN(C)S(=O)(=O)Oc1ccc(C(c2ccc(C#N)cc2)n2cncn2)cc1Br (racemic) [compound 42, 2-Bromo-4-((4-cyanophenyl)(1H-1,2,4-triazol-1-yl)methyl)phenyl dimethylsulfamate]
